Reference: US20250367098A1, “SUNSCREEN COMPOSITION FOR LACTOBACILLUS AND S. EPIDERMIDIS PROTECTION ON SKIN” (DSM IP Assets B.V., priority 2022, published 2025)

How the values were obtained:
[1] = tested on: Lactobacillus crispatus CIP 103604; assay: In vitro UV model: bacterial survival after UV irradiation (96-well, MPN method); format: cell-based
Method: (§1) Accordingly, the inventors developed a targeted in vitro liquid model in 96-well microplate format to screen for UV protective actives (“UV filters”) on bacterial survival upon UV irradiation. The effects of selected UV irradiation conditions tested on microbial population of Lactobacillus crispatus (L. crispatus) and Staphylococcus epidermidis (S. epidermidis) in the presence of UV filter samples and combinations thereof were evaluated with the evolution of the residual microbial population after 4 h. The inhibition of bacterial growth, as consequence of UV irradiation, was compared to that of the same strain without UV irradiation and was expressed in percentage of survival (%). The microbial strains used in this study are listed below and their cultures are reconstituted according to the direction of the supplier collection center of the reference strain, CRBIP (Institut Pasteur Collection, France) or ATCC (American Type Culture Collection, USA): • Lactobacillus crispatus CIP 103604 • Staphylococcus epidermidis ATCC 12228 The 96-well plate was filled with the culture media (140 μL) and a calibrated inoculum (20 μL) of each bacterial strain was added to reach […] colony forming units per milliliter (cfu/mL) final concentration. After contamination, the sample was added (40 μL; 20% v/v) in triplicate and was thoroughly mixed to ensure a homogeneous distribution. Then, the plate was submitted to UV stress through an UV irradiator system (BioSun, Vilber Lourmat, France) according to the UV doses presented Table 1 below. The specific UV dose selected was between 10 and 49% survival of the microbial population. For the microbial population counts, aliquots of the contaminated samples of L. crispatus and S. epidermidis were serially diluted (4 decimal dilutions followed by 8 binary dilutions, in triplicate) in culture media on 96-wells plates with triphenyltetrazolium. Then, the plates were incubated at 37° C.±2,5° C. during 48 h taking into account the respiratory type of each strain. […] The use level of the single UV filter and combinations in the test formulations was calculated to obtain a predicted in vitro SPF value of 5.75+/−0.15 and 23.45+/−0.65, respectively (Table 2). […] The relative percentage of protection (%) was calculated from the difference between the survival percentages of samples and vehicle control (with UV irradiation) and divided to the survival percentage of the vehicle control. Consequently, the survival of each microbial population and the relative protection by the UV filter(s) were calculated and are summarized in the Table 2.

[2] = tested on: Staphylococcus epidermidis ATCC 12228; assay: as above; format: cell-based
Method: as §1

Row | Structure (SMILES) | survival rate of L. crispatus after UV radiation (in words) ([1]; summary statement) | protection of S. epidermidis from UV radiation (in words) ([2]; summary statement) | L. crispatus relative protection by the UV filter(s) vs. vehicle control ([1]; 50 SED (500 mJ/cm^2 UVA+UVB), sample at 20% v/v, after 4 h) | S. epidermidis relative protection by the UV filter(s) vs. vehicle control ([2]; 15 SED (150 mJ/cm^2 UVA+UVB), sample at 20% v/v, after 4 h)
1 | CCCCC(CC)COC(=O)C(C#N)=C(c1ccccc1)c1ccccc1 (stereo not shown) [Inv. 1, Octocrylene] | particularly good survival rate | efficiently protecting | – | –
2 | CCCCC(CC)COC(=O)c1ccc(Nc2nc(Nc3ccc(C(=O)OCC(CC)CCCC)cc3)nc(Nc3ccc(C(=O)OCC(CC)CCCC)cc3)n2)cc1 (stereo not shown) [Inv. 3, Ethylhexyl Triazone] | – | – | (+100) % | (+59) %
